Source: PubChem BioAssay (NCI)
Several values for one entry are separate records, joined by “and”; a condition that tells them apart may be missing. Equal entries are not always repeated.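 A five-concentration, 48-hour dose response in 96-well plates underlies each endpoint, interpolated linearly between surrounding concentrations. GI50 = concentration required for 50% inhibition of growth. Definition used: TGI = concentration required for complete inhibition of growth.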

How the values were obtained:
Test in all cases: growth of human tumour cells (NCI), 48 h
DLD-1 colon = test system: DLD-1 colon
DMS 114 small cell lung = test system: DMS 114 small cell lung
HOP-18 NSCLC = test system: HOP-18 NSCLC
KM20L2 colon = test system: KM20L2 colon
M19-MEL melanoma = test system: M19-MEL melanoma
RXF-631 renal = test system: RXF-631 renal
SNB-78 CNS = test system: SNB-78 CNS
XF 498 CNS = test system: XF 498 CNS
MDA-N = test system: MDA-N

O=C(Nc1ccccc1)O/N=C1/CCCC/C1=C\c1ccccc1
TGI (DLD-1 colon): 29.4 µM | TGI (DMS 114 small cell lung): 24.8 µM | TGI (HOP-18 NSCLC): 29.9 µM | TGI (KM20L2 colon): 43.2 µM | TGI (M19-MEL melanoma): 34 µM | TGI (RXF-631 renal): 47.3 µM | TGI (SNB-78 CNS): 33 µM

Nc1ccc(CCN2CCN(c3cccc(C(F)(F)F)c3)CC2)cc1
TGI (DLD-1 colon): > 100 µM | TGI (DMS 114 small cell lung): > 100 µM | TGI (HOP-18 NSCLC): > 100 µM | TGI (KM20L2 colon): > 100 µM | TGI (M19-MEL melanoma): > 100 µM | TGI (RXF-631 renal): > 100 µM | TGI (XF 498 CNS): > 100 µM

O=C(O)C1CCCN1Cc1c[nH]c2ccccc12 (stereo unspecified)
TGI (MDA-N): > 100 µM

CCOC(=O)c1[nH]c2cccc3c2c1CC(Br)C3=O (stereo unspecified)
TGI (MDA-N): 24.9 µM

Cc1c2ncccc2c(C)c2c1[nH]c1ccc(O)cc12
GI50 (MDA-N): 9.69 µM | TGI (MDA-N): 17.9 µM and 47.5 µM

O=C(c1ccccc1)c1ccc2cccc(O)c2n1
TGI (DLD-1 colon): > 100 µM | TGI (DMS 114 small cell lung): 39.1 µM | TGI (HOP-18 NSCLC): > 100 µM | TGI (KM20L2 colon): > 100 µM | TGI (M19-MEL melanoma): > 100 µM | TGI (RXF-631 renal): > 100 µM | TGI (SNB-78 CNS): > 100 µM | TGI (XF 498 CNS): > 100 µM

COC(=O)C1Cc2c(n(C)c3ccccc23)C(c2ccccc2)N1 (stereo unspecified)
TGI (DMS 114 small cell lung): > 100 µM | TGI (HOP-18 NSCLC): > 100 µM | TGI (KM20L2 colon): > 100 µM | TGI (M19-MEL melanoma): > 100 µM | TGI (RXF-631 renal): > 100 µM | TGI (SNB-78 CNS): > 100 µM

NC(=O)c1csc(C2O[C@@H](COP(=O)(O)OP(=O)(O)OC[C@H]3OC(n4cnc5c(N)ncnc54)[C@H](O)[C@@H]3O)[C@H](O)[C@@H]2O)n1 (stereo partly specified)
TGI (DLD-1 colon): > 100 µM | TGI (DMS 114 small cell lung): > 100 µM | TGI (HOP-18 NSCLC): > 100 µM | TGI (KM20L2 colon): > 100 µM | TGI (SNB-78 CNS): > 100 µM | TGI (XF 498 CNS): > 100 µM

Nc1nc(SCC(=O)O)[nH]c(=O)c1N
TGI (MDA-N): > 100 µM

CC(C)(C)C(=O)Nc1ccccc1Br
TGI (DLD-1 colon): > 100 µM | TGI (DMS 114 small cell lung): > 100 µM | TGI (KM20L2 colon): > 100 µM | TGI (M19-MEL melanoma): > 100 µM | TGI (XF 498 CNS): > 100 µM

COC1CCC2C(=O)CCCC2O1 (stereo unspecified)
TGI (DLD-1 colon): > 100 µM | TGI (DMS 114 small cell lung): > 100 µM | TGI (HOP-18 NSCLC): > 100 µM | TGI (KM20L2 colon): > 100 µM | TGI (M19-MEL melanoma): > 100 µM | TGI (RXF-631 renal): > 100 µM | TGI (SNB-78 CNS): > 100 µM | TGI (XF 498 CNS): > 100 µM

CC1/C=C/C=C/CC/C=C/C=C/C=C/C=C/C(OC2OC(C)C(O)C(N)C2O)CC2OC(CC(O)C(O)CCC(O)CC(O)CC(O)CC(=O)OC(C)C(C)C1O)CC(O)C2C(=O)O (stereo unspecified)
GI50 (MDA-N): 25.6 µg/mL | TGI (MDA-N): 31.8 µM and 46.7 µg/mL

O=C1NC(=O)C2=C1CCC2O (stereo unspecified)
TGI (MDA-N): > 100 µM

CCCCCCC(O)C/C=C/CCCCCC/C(C(=O)OC)=C(/O)C(=O)OCC (stereo unspecified)
TGI (DLD-1 colon): > 100 µM | TGI (DMS 114 small cell lung): > 100 µM | TGI (HOP-18 NSCLC): > 100 µM | TGI (M19-MEL melanoma): > 100 µM | TGI (RXF-631 renal): > 100 µM | TGI (SNB-78 CNS): > 100 µM | TGI (XF 498 CNS): > 100 µM

CN(C)CCN1N=Nc2cccc3cccc1c23
TGI (DLD-1 colon): > 100 µM | TGI (DMS 114 small cell lung): > 100 µM | TGI (HOP-18 NSCLC): > 100 µM | TGI (KM20L2 colon): > 100 µM | TGI (RXF-631 renal): > 100 µM | TGI (XF 498 CNS): > 100 µM

O=[N+]([O-])c1ccc2c(c1)OCCOCCOc1ccc([N+](=O)[O-])cc1OCCOCCO2
TGI (DMS 114 small cell lung): > 100 µM | TGI (KM20L2 colon): > 100 µM | TGI (SNB-78 CNS): > 100 µM

Cc1cc(N(CCC#N)CCC#N)ccc1N=Nc1ccccc1[N+](=O)[O-]
TGI (DLD-1 colon): > 100 µM | TGI (DMS 114 small cell lung): > 100 µM | TGI (HOP-18 NSCLC): > 100 µM | TGI (M19-MEL melanoma): > 100 µM | TGI (RXF-631 renal): > 100 µM | TGI (SNB-78 CNS): > 100 µM | TGI (XF 498 CNS): 80.9 µM

CC(=O)CC(=O)CCCC(=O)Nc1ccc(Cl)cc1Cl
TGI (DLD-1 colon): > 100 µM | TGI (HOP-18 NSCLC): > 100 µM | TGI (KM20L2 colon): > 100 µM | TGI (RXF-631 renal): > 100 µM | TGI (XF 498 CNS): > 100 µM

CC(=O)C(C(=N)C#N)C(=O)Nc1ccccc1 (stereo unspecified)
TGI (MDA-N): > 100 µM

Cc1ccc(C)c(NC(=O)CC2C(=O)Nc3ccccc3S2(=O)=O)c1 (stereo unspecified)
TGI (DLD-1 colon): > 100 µM | TGI (DMS 114 small cell lung): > 100 µM | TGI (KM20L2 colon): > 100 µM | TGI (M19-MEL melanoma): > 100 µM | TGI (RXF-631 renal): > 100 µM | TGI (SNB-78 CNS): > 100 µM | TGI (XF 498 CNS): 61.6 µM

O=C1c2cccnc2-c2nc(-c3ccccn3)cc3c2c1nc1ccccc13
GI50 (MDA-N): 0.259 µM | TGI (MDA-N): 1.25 µM

O=C1C(c2ccc(Cl)cc2)=[N+]([O-])c2ccccc21
TGI (DLD-1 colon): 30.1 µM | TGI (DMS 114 small cell lung): 14.3 µM | TGI (HOP-18 NSCLC): 58.9 µM | TGI (KM20L2 colon): 52.1 µM | TGI (M19-MEL melanoma): > 100 µM | TGI (RXF-631 renal): 48.4 µM | TGI (XF 498 CNS): 34.7 µM

O=[N+]([O-])c1ccc(OCCNc2cccc3ccccc23)cc1
TGI (DLD-1 colon): > 100 µM | TGI (DMS 114 small cell lung): > 100 µM | TGI (HOP-18 NSCLC): > 100 µM | TGI (KM20L2 colon): > 100 µM | TGI (M19-MEL melanoma): > 100 µM | TGI (RXF-631 renal): > 100 µM | TGI (XF 498 CNS): > 100 µM

C=CC[P@@]1(=O)O[C@H](c2ccccc2)C(C)N1C(C)C (stereo partly specified)
TGI (DLD-1 colon): > 100 µM | TGI (DMS 114 small cell lung): > 100 µM | TGI (HOP-18 NSCLC): > 100 µM | TGI (M19-MEL melanoma): > 100 µM | TGI (RXF-631 renal): > 100 µM | TGI (SNB-78 CNS): > 100 µM | TGI (XF 498 CNS): > 100 µM

COC(=O)[C@H](C)[C@H]1CC[C@@](C)([C@H]2CC3C(C)(C)[C@H]4CCC(C)=C[C@H]4C[C@@]3(C)O2)OO1 (stereo partly specified)
TGI (DLD-1 colon): 25.9 µM | TGI (DMS 114 small cell lung): 14.2 µM | TGI (KM20L2 colon): 27.5 µM | TGI (M19-MEL melanoma): 28.8 µM | TGI (SNB-78 CNS): 28.9 µM | TGI (XF 498 CNS): 21.8 µM

CC(C)SC1SCC2C(=O)N(C)C3(CC3C)C(=O)OCC(NC(=O)c3nc4ccccc4cc3O)C(=O)NC(C)C(=O)N(C)C1C(=O)N(C)C1(CC1C)C(=O)OCC(NC(=O)c1nc3ccccc3cc1O)C(=O)NC(C)C(=O)N2C (stereo unspecified)
TGI (MDA-N): < 0.0001 µM

CC1=C2C(=CC(C)(CO)C2O)C(=O)C(C)(O)C12CC2 (stereo unspecified)
TGI (DLD-1 colon): 0.0738 µM | TGI (DMS 114 small cell lung): 0.00769 µM | TGI (HOP-18 NSCLC): 0.0331 µM | TGI (KM20L2 colon): 0.0137 µM | TGI (M19-MEL melanoma): 0.0116 µM | TGI (RXF-631 renal): 0.0359 µM | TGI (SNB-78 CNS): 0.0479 µM

CC1(c2ccccc2)CC12C(=O)NC(=O)NC2=O (stereo unspecified)
TGI (DLD-1 colon): > 100 µM | TGI (DMS 114 small cell lung): > 100 µM | TGI (KM20L2 colon): > 100 µM | TGI (M19-MEL melanoma): > 100 µM | TGI (SNB-78 CNS): > 100 µM | TGI (XF 498 CNS): > 100 µM

O=C1CC2(CCCc3sccc32)C(=O)N1 (stereo unspecified)
TGI (MDA-N): > 100 µM

C=C1C(=O)OC2C1C(OC(=O)/C(C)=C/C)CC(O)(CCl)C1C(OC(C)=O)C=C(C)C21O (stereo unspecified)
TGI (MDA-N): 41.8 µM

COc1cccc(/C=C\c2cc(OC)c(OC)c(OC)c2)c1
TGI (DLD-1 colon): > 100 µM | TGI (DMS 114 small cell lung): 67.3 µM | TGI (KM20L2 colon): 1.56 µM | TGI (M19-MEL melanoma): > 100 µM | TGI (RXF-631 renal): > 100 µM | TGI (SNB-78 CNS): 58.9 µM | TGI (XF 498 CNS): 35.8 µM

Cc1c2cc[n+](C)cc2c(C)c2c1[nH]c1ccc(OC(C)C)cc12
GI50 (DLD-1 colon): 1.91 µM and 6.02 µM | TGI (DLD-1 colon): > 100 µM | TGI (HOP-18 NSCLC): 27.1 µM and 35.4 µM | TGI (KM20L2 colon): 44.3 µM and 39.8 µM | TGI (M19-MEL melanoma): 6.14 µM and 7.31 µM | GI50 (SNB-78 CNS): 0.427 µM and 3.93 µM | TGI (SNB-78 CNS): 6.56 µM and > 25.2 µM

Cc1ccc(C2=[N+]([O-])c3ccccc3C2=O)cc1
TGI (DLD-1 colon): 57.2 µM | TGI (DMS 114 small cell lung): 28.2 µM | TGI (HOP-18 NSCLC): > 100 µM | TGI (KM20L2 colon): 98.6 µM | TGI (M19-MEL melanoma): > 55.4 µM | TGI (RXF-631 renal): 51.7 µM | TGI (SNB-78 CNS): 74.2 µM | TGI (XF 498 CNS): 17.8 µM

O=C(O)CSCC(=O)c1ccccc1
TGI (MDA-N): > 100 µM

N#C[C@]12CC3(CC[C@H]1CC1(C2)OCCO1)OCCO3
TGI (DLD-1 colon): > 100 µM | TGI (DMS 114 small cell lung): > 100 µM | TGI (HOP-18 NSCLC): > 100 µM | TGI (KM20L2 colon): > 100 µM | TGI (M19-MEL melanoma): > 100 µM | TGI (RXF-631 renal): > 100 µM | TGI (SNB-78 CNS): > 100 µM

O=c1oc2ccccc2cc1-c1ccc([N+](=O)[O-])cc1
TGI (MDA-N): > 100 µM

N.N.NCCCCN.O=C([O-])CC(=O)[O-].O=C([O-])CC(=O)[O-].[Pt+4].[Pt+4]
GI50 (DLD-1 colon): > 100 µM | TGI (DLD-1 colon): > 100 µM | GI50 (HOP-18 NSCLC): > 100 µM | TGI (HOP-18 NSCLC): > 100 µM | GI50 (KM20L2 colon): > 100 µM | TGI (KM20L2 colon): > 100 µM | GI50 (SNB-78 CNS): > 100 µM | TGI (SNB-78 CNS): > 100 µM

O=C(O)C(Cc1ccccc1-c1ccccc1)C(=O)O
TGI (MDA-N): > 100 µM
